Two compounds from US4725581A, “New peptide compounds having a lactone or cycloamide structure” (ADIR et Compagnie, priority 1985, dated 1988) can be followed below.

Common to all, as to format: in vivo
For one data set, the system named is mice. The experiment in a line: Potentialisation of the toxicity of Yohimbine. The settings on record: Yohimbine alone 35 mg/kg i.p. The procedure: Yohimbine, injected to mice at a dose of 35 mg/kg i.p. causes the death of 10% to 30% treated animals. The compounds of the invention administered at a dose of 10 mg/kg i.p. 15 minutes before the injection of Yohimbine increase the rate of mortality (+80% with compounds of examples 5 and 7).

Another data set relates to cerebral AMPc. The experiment in a line: Stimulation of the synthesis of cerebral AMPc. Conditions: mice OF1/IFFA-Credo, 10 mg/kg intraperitoneally, five minutes after injection. The procedure: The compounds to be tested are administered intraperitoneally at a dose of 10 mg/kg to mice of strain OF1 /IFFA-Credo.
Five minutes after injection, the animals are sacrificed by freezing and the AMPc present in the cerebral structures is measured by radio immunology according to the Amersham method (specific binding protein).

In a further data set the test system is rats. The data set is described as follows: Increase in the latency of the onset of sleep induced by Pentobarbital. The settings on record: 10 mg/kg i.p. before pentobarbital 40 mg/kg i.p. The procedure:
Pentobarbital, injected in rats at a dose of 40 mg/kg i.p., induces the onset of sleep.

In the case of `COC(=O)[C@@H]1[C@H]2C[C@H]3c4[nH]c5ccccc5c4CCN3C[C@@H]2CC[C@@H]1O` [Yohimbine], the “death of treated animals” value in the data set with mice is listed as 10% to 30.

With `NC(=O)[C@@H]1CCCN1C(=O)[C@H](Cc1c[nH]cn1)NC(=O)[C@@H]1CCC(=O)N1` [TRH, pyroglutamylhistidyl-prolinamide], the “increase of the intracerebral content of AMPc” value in the data set on cerebral AMPc is reported as 46%. Besides, in the data set with rats, the “effect on the onset of sleep induced by pentobarbital (in words)” value was “inactive”.
